Results from patent US9938301B2, “Dihydropyrimido fused ring derivative as HBV inhibitor” (QILU PHARMACEUTICAL CO., LTD., priority 2014, dated 2018).
Like-named read-outs stand apart in the source and are kept apart here.

System: HBV DNA in HepG2.2.15 cells
Experiment: HBV in vitro dot-blot hybridization test
Format: cell-based, Hepatitis B virus
Method: • 1. Purpose of the test: • The content of HBV DNA in HepG2.2.15 cells was detected by dot-blot hybridization test to evaluate an inhibitory action of the compound on HBV with an EC50 value as an indicator. • 2. Experimental materials: • 2.1 Cell lines: HepG2.2.15 Cells • HepG2.2.15 cell culture media (DMEM/F12, Invitrogen-11330057; 10% serum Invitrogen-10099141; 100 units/mL Penicillin and 10 μg/mL Streptomycin, Invitrogen-15140122; 1% non-essential amino acid, Invitrogen-11140076; 2 mM L-GLUTAMINE, Invitrogen-25030081; 300 µg/ml Geneticin, Invitrogen-10131027 • 2.2 Reagents: • Trypsin (I Invitrogen-25300062) • DPBS (Hyclone-SH30028.01B) • DMSO (Sigma-D2650-100ML) • 96-well cell-culture plate (Corning-3599) • CO2 incubator (HERA-CELL-240) • 20×SSC (Bio-serve Co. Ltd) • Tris-HCl (Aldirch-154563-1KG) • NaOH (Sinopharm 10019718) • NaCl (Sinopharm 10019308) • Hybridization solution (Major BioTech Co. Ltd, IMMUNE GOLD-HYB-500) • DIG Wash and Block Buffer set (Roche-11585762001) • Anti-digoxigenin-AP, Fab fragments from sheep (Roche-11093274910) • 2.3 Materials and Instruments: • Positively-Charged Nylon Membrane (GE-RPN2250B) • Transfer Membrane Instrument (Bio-Rad, 170-6545) • Hybridization Oven (HL-2000 Hybrilinker) • 3. Testing steps and Methods: • 3.1 HepG2.2.15 cells (4×10^4 cells/well) were planted into a 96-well plate, and at 37° C., 5% CO2 cultured overnight. • 3.2 On Day 2, the compounds were diluted in totally 6 concentrations with a dilution gradient of five times. The compounds at different concentrations were added into the culture wells in duplicate. The final concentration of DMSO in the culture media was 1%. 1 μM GLS4 was used as 100% inhibition control; 1% DMSO as 0% inhibition control. • 3.3 On Day 5, replacing with the fresh culture media containing the compound was performed. • 3.4 On Day 8 and Day 9, the culture media in the culture wells was removed, and the cells were harvested for dot-blot hybridization. • The lysate was added into a culture well, and at 37° C. incubating for half an hour to disintegrate cells; the supernatant was obtained by centrifugation and transferred into a new microplate; a denaturation solution was added, after sufficient mixing the denatured sample was transferred and imprinted onto a Nylon membrane, the nucleic acid was fixed onto the membrane by UV cross-linking. • Pre-hybridization: the membrane was incubated at 60° C. in a hybridization solution for 1 hour. • Hybridization: heating the denatured digoxin-labelled HBV DNA probe and incubating at 60° C. overnight. • Membrane Washing: performing high strigency washing twice, low strigency washing for 3 times. • Blocking: incubating the membrane at room temperature in a blocking solution for 30-60 minutes. • Hybridization: diluting the Antibody Solution with the blocking solution, in which the membrane was placed and incubated at room temperature for 30-60 minutes. • Developing: washing the membrane in a Detection Buffer for 5 minutes, followed by adding a developing solution, pressing and exposing. • The photos was saved in tiff format, and a gray value of the dot was quantified with quantity one software. • 3.5 Data Analysis: • 3.5.1 The inhibition percentage was calculated: % Inh.=[1−(sample dot gray value−1 μM GLS4 dot gray value 1)/(DMSO control dot gray value−1 μM GLS4 dot gray value 1)]×100. • 3.5.2 Calculating EC50: the concentration of the compound for 50% inhibition of HBV (EC50) was calculated by using GraphPad Prism Software. • 4.

[1] = Hepatitis B virus, HepG2.2.15, dot-blot hybridization assay, read-out: Concentration for 50% inhibition of HBV (EC50)value
[2] = Hepatitis B virus, HepG2.2.15, summary list of target compounds, Examples 1-165 (same as Table 2), read-out: BIOACTIVITY (inhibitory actions on HBV DNA, EC50)
[3] = summary list of target compounds, Examples 1-165 (same as Table 2), read-out: BIOACTIVITY (inhibitory actions on HBV DNA, EC50)
[4] = dot-blot hybridization assay, read-out: Concentration for 50% inhibition of HBV (EC50)value

Structure (SMILES)	EC50 [1]	EC50 [2]	EC50 [3]	EC50 [4]
CCOC(=O)C1=C2CCCN2C(c2nccs2)=NC1c1ccc(F)cc1Cl (racemic) [Example 1]	0.1 to 0.5 µM	0.1 to 0.5 µM		
CCOC(=O)C1=C2C(N(C)CCO)CCN2C(c2nccs2)=NC1c1ccc(F)cc1Cl (racemic) [Example 2]	1 to 5 µM	1 to 5 µM		
CCOC(=O)C1=C2[C@@H](C(N)=O)CCN2C(c2nccs2)=N[C@H]1c1ccc(F)cc1Cl (racemic) [Example 3]	0.1 to 0.5 µM	0.1 to 0.5 µM		
CCOC(=O)C1=C2CCCN2C(c2nccs2)=NC1c1ccc(F)cc1Br (racemic) [Example 4]	0.1 to 0.5 µM	0.1 to 0.5 µM		
CCOC(=O)C1=C2C[C@@H](CO)CN2C(c2nccs2)=NC1c1ccc(F)cc1Br (mixture of isomers) [Example 8]	0.1 to 0.5 µM	0.1 to 0.5 µM		
CCOC(=O)C1=C2C[C@@H](CO)CN2C(c2nccs2)=NC1c1ccc(F)cc1Br (mixture of isomers) [Example 9]			0.1 to 0.5 µM	
COCC1CC2=C(C(=O)OC)C(c3ccc(F)cc3Br)N=C(c3nccs3)N2C1 (racemic) [Example 10]	1 to 5 µM	1 to 5 µM		
CCOC(=O)C1=C2C[C@@H](CC#N)CN2C(c2nccs2)=NC1c1ccc(F)cc1Br (mixture of isomers) [Example 11]			1 to 5 µM	1 to 5 µM
CCOC(=O)C1=C2C[C@@H](CC#N)CN2C(c2nccs2)=NC1c1ccc(F)cc1Br (mixture of isomers) [Example 12]			0.1 to 0.5 µM	0.1 to 0.5 µM
CCOC(=O)C1=C2C[C@@H](CN3CCOCC3)CN2C(c2nccs2)=NC1c1ccc(F)cc1Br (mixture of isomers) [Example 17]	1 to 5 µM	1 to 5 µM		
CCOC(=O)C1=C2C[C@@H](CN3CCOCC3)CN2C(c2nccs2)=NC1c1ccc(F)cc1Br (mixture of isomers) [Example 18]			1 to 5 µM	
CCOC(=O)C1=C2CC(C(=O)O)CN2C(c2nccs2)=NC1c1ccc(F)cc1Br (racemic) [Example 23]	1 to 5 µM	1 to 5 µM		
CCOC(=O)C1=C2C[C@@H](C#N)CN2C(c2nccs2)=NC1c1ccc(F)cc1Br (mixture of isomers) [Example 26]			0.5 to 1 µM	0.5 to 1 µM
CCOC(=O)C1=C2C[C@@H](C#N)CN2C(c2nccs2)=NC1c1ccc(F)cc1Br (mixture of isomers) [Example 27]			0.1 to 0.5 µM	0.1 to 0.5 µM
CCOC(=O)C1=C2C[C@@H](C(N)=O)CN2C(c2nccs2)=NC1c1ccc(F)cc1Br (mixture of isomers) [Example 28]	0.1 to 0.5 µM	0.1 to 0.5 µM		
CCOC(=O)C1=C2C[C@@H](C(N)=O)CN2C(c2nccs2)=NC1c1ccc(F)cc1Br (mixture of isomers) [Example 29]			0.1 to 0.5 µM	
CCOC(=O)C1=C2CC(NC(=O)OC)CN2C(c2nccs2)=N[C@H]1c1ccc(F)cc1Br (mixture of isomers) [Example 42]	< 0.1 µM	< 0.1 µM		
CCOC(=O)C1=C2CC(NC(=O)OC(C)C)CN2C(c2nccs2)=N[C@H]1c1ccc(F)cc1Br (mixture of isomers) [Example 45]	< 0.1 µM	< 0.1 µM		
CCOC(=O)C1=C2CC(NC(C)=O)CN2C(c2nccs2)=N[C@H]1c1ccc(F)cc1Br (mixture of isomers) [Example 48]	0.1 to 0.5 µM	0.1 to 0.5 µM		
CCOC(=O)C1=C2CC(NC(=O)NC)CN2C(c2nccs2)=N[C@H]1c1ccc(F)cc1Br (mixture of isomers) [Example 51]	0.1 to 0.5 µM	0.1 to 0.5 µM		
CCOC(=O)C1=C2CC(NS(=O)(=O)NC)CN2C(c2nccs2)=N[C@H]1c1ccc(F)cc1Br (mixture of isomers) [Example 54]	< 0.1 µM	< 0.1 µM		
CCOC(=O)C1=C2CC(NS(C)(=O)=O)CN2C(c2nccs2)=N[C@H]1c1ccc(F)cc1Br (mixture of isomers) [Example 57]	< 0.1 µM	< 0.1 µM		
CCOC(=O)C1=C2CC(NS(=O)(=O)C3CC3)CN2C(c2nccs2)=N[C@H]1c1ccc(F)cc1Br (mixture of isomers) [Example 60]	< 0.1 µM	< 0.1 µM		

Structure (SMILES)	EC50 [1]	EC50 [2]	EC50 [3]	EC50 [4]
CCOC(=O)C1=C2COC(=O)N2C(c2nccs2)=NC1c1ccc(F)cc1Br (racemic) [Example 67]	0.1 to 0.5 µM	0.1 to 0.5 µM		
CCOC(=O)C1=C2CCC(=O)N2C(c2nccs2)=NC1c1ccc(F)cc1Br (racemic) [Example 68]	1 to 5 µM	1 to 5 µM		
CCOC(=O)C1=C2CCCN2C(c2nccs2)=NC1c1ccc(F)c(F)c1 (racemic) [Example 69]	0.1 to 0.5 µM	0.1 to 0.5 µM		
CCOC(=O)C1=C2CCCN2C(c2nccs2)=NC1c1cccc(F)c1Cl (racemic) [Example 70]	0.1 to 0.5 µM	0.1 to 0.5 µM		
CCOC(=O)C1=C2CCCN2C(c2nccs2)=NC1c1ccc(F)cc1C (racemic) [Example 71]	0.1 to 0.5 µM	0.1 to 0.5 µM		
CCOC(=O)C1=C2CCCN2C(c2nccs2)=NC1c1ccc(F)cc1F (racemic) [Example 72]	0.5 to 1 µM	0.5 to 1 µM		
CCOC(=O)C1=C2CCCN2C(c2nccs2)=NC1c1ccc(F)cc1 (racemic) [Example 73]	1 to 5 µM	1 to 5 µM		
CCOC(=O)C1=C2CCCN2C(c2nccs2)=NC1c1cc(Cl)sc1Cl (racemic) [Example 74]	1 to 5 µM	1 to 5 µM		
CCOC(=O)C1=C2CCCN2C(c2nccs2)=NC1(C)c1ccc(F)cc1 (racemic) [Example 75]	1 to 5 µM	1 to 5 µM		
CCOC(=O)C1=C2CCCN2C(c2ncc(F)cc2F)=NC1c1ccc(F)cc1Cl (racemic) [Example 76]	1 to 5 µM	1 to 5 µM		
CCOC(=O)C1=C2CCCN2C(c2ccsn2)=NC1c1ccc(F)cc1Cl (racemic) [Example 77]	1 to 5 µM	1 to 5 µM		
CCOC(=O)C1=C2CCCN2C(c2nccn2C)=NC1c1ccc(F)cc1Cl (racemic) [Example 78]	1 to 5 µM	1 to 5 µM		
CCOC(=O)C1=C2CCCN2C(c2nc(C)cs2)=NC1c1ccc(F)cc1Cl (racemic) [Example 79]	1 to 5 µM	1 to 5 µM		
COCOC(=O)C1=C2CCCN2C(c2nccs2)=NC1c1ccc(F)cc1Br (racemic) [Example 80]	1 to 5 µM	1 to 5 µM		
O=C(OCC(F)F)C1=C2CCCN2C(c2nccs2)=NC1c1ccc(F)cc1Br (racemic) [Example 81]	1 to 5 µM	1 to 5 µM		
CCOC(=O)C1=C2CNCCN2C(c2nccs2)=NC1c1ccc(F)cc1Br (racemic) [Example 83]	1 to 5 µM	1 to 5 µM		
CCOC(=O)C1=C2CN(C(C)=O)CCN2C(c2nccs2)=NC1c1ccc(F)cc1Br (racemic) [Example 86]	0.5 to 1 µM	0.5 to 1 µM		
CCOC(=O)C1=C2CN(S(C)(=O)=O)CCN2C(c2nccs2)=NC1c1ccc(F)cc1Br (racemic) [Example 87]	0.5 to 1 µM	0.5 to 1 µM		
CCOC(=O)C1=C2CN(CC(N)=O)CCN2C(c2nccs2)=NC1c1ccc(F)cc1Br (racemic) [Example 95]	0.1 to 0.5 µM	0.1 to 0.5 µM		
CCOC(=O)C1=C2CN(C)CCN2C(c2nccs2)=NC1c1ccc(F)cc1Br (racemic) [Example 96]	1 to 5 µM	1 to 5 µM		
CCOC(=O)C1=C2CN(Cc3ccc(OC)cc3)CCN2C(c2nccs2)=NC1c1ccc(F)cc1Br (racemic) [Example 97]	1 to 5 µM	1 to 5 µM		
CCOC(=O)C1=C2CNC(=O)CN2C(c2nccs2)=NC1c1ccc(F)cc1Br (racemic) [Example 104]	1 to 5 µM	1 to 5 µM		
